This note sets out measurements from patent US4141989A, “Fungicidal 3-(N-chloroacetyl-N-arylamino)-gamma-butyrolactone compositions” (Chevron Research Company, priority 1977, dated 1979).

Common to all, as to format: in vivo
The test system of experiment [1] is Plasmopara viticola. Briefly: Preventive grape downy mildew control, detached Emperor leaves (Example 5, Table I). As to conditions: 100 ppm, sprayed before inoculation.
In experiment [2] the test system is Plasmopara viticola. As to the kind of experiment: Eradicant grape downy mildew control, detached Emperor leaves (Example 6, Table I). To be noted: 48 h, sprayed 2 days after inoculation, read-out: Eradicative Grape Downy Mildew Control, %.
The subject of experiment [3] is Plasmopara viticola. Briefly: Eradicant downy mildew control on Emperor and Carignane grape leaves (Example 9, Table IV).
Experiment [4] relates to Plasmopara viticola. Briefly: Preventive grape downy mildew control, detached Cabernet Sauvignon leaves (Example 7, Table II).
In experiment [5] the test system is Phytophthora cryptogea. As to the kind of experiment: Safflower crown and root rot control by foliar spray (Example 17, Table XII).
Experiment [6] has as its system Bremia lactucae. As to the kind of experiment: Control of lettuce downy mildew (Example 13, Table VIII).
In experiment [7] the test system is Pseudoperonospora cubensis. As to the kind of experiment: Foliar spray control of cucumber downy mildew (Example 15, Table X).
Experiment [8] relates to Phytophthora cryptogea. As to the kind of experiment: Snapdragon crown and root rot control, soil drench (Example 16, Table XI). As to conditions: in vivo.
Experiment [9] relates to Phytophthora cryptogea. Briefly: Snapdragon crown and root rot control, foliar spray (Example 16, Table XI). To be noted: in vivo.
The mark [10] stands for this setting: Carignane leaves, treated 3 days after inoculation.
[11] abbreviates: Emperor leaves, treated 1 day after inoculation.
Where [12] appears, read: Emperor leaves, treated 2 days after inoculation.

`Cc1cccc(C)c1N(C(=O)CCl)C1CC(C)OC1=O` (stereo not shown) [B, 3-(N-chloroacetyl-N-2,6-dimethylphenylamino)-5-methyl-gamma-butyrolactone] showed a pest or weed control at 100 ppm in experiment [1] of 80%. Also, the pest or weed control at 40 ppm in experiment [2] turned out to be 95%.
Taken in the same sequence, the figures for `CCC(=O)N(c1ccc(Cl)c(Cl)c1)C1CCOC1=O` (stereo not shown) [Compound 1] were 0% and 5%.
Take `Cc1cccc(C)c1N(C(=O)c1ccc(Cl)c(Cl)c1)C1CCOC1=O` (stereo not shown) [Compound 2]: the pest or weed control at 100 ppm in experiment [2] is 29%.
On to `COc1ccccc1N(C(=O)CCl)C1CCOC1=O` (stereo not shown) [Compound 3], for which the pest or weed control at 100 ppm in [1] came to 0%; in [2], 12%.
As to `Cc1cccc(C)c1N(C(=O)CCl)C1CCN(C)C1=O` (stereo not shown) [Compound 4], the pest or weed control at 100 ppm in experiment [2] turned out to be 3%.
The same measure, in the same setting: the figure for `O=C1OCCC1N(C(=O)CCl)c1ccccc1` (stereo not shown) [Compound 5] is 0%.
Turning to `CCc1cccc(CC)c1N(C(=O)CCl)C1CCOC1=O` (stereo not shown) [Compound 6], the pest or weed control at 100 ppm worked out at 0% in [1] and 39% in experiment [2].
Compound `CC(C)c1ccccc1N(C(=O)CCl)C1CCOC1=O` (stereo not shown) [Compound 7] showed a pest or weed control at 100 ppm in [1] of 3%. In addition, in experiment [2] (16 ppm), the pest or weed control at 16 ppm was found to be 17%.
In the case of `CCc1ccccc1N(C(=O)CCl)C1CCOC1=O` (stereo not shown) [Compound 8], the pest or weed control at 100 ppm in experiment [1] and in experiment [2] was 0% each time.
Take `O=C1OCCC1N(C(=O)CCl)c1c(Cl)cccc1Cl` (stereo not shown) [Compound 9]: the pest or weed control at 100 ppm in experiment [1] turned out to be 0%; in experiment [2], 95%. The pest or weed control at 40 ppm in experiment [2] came out at 67%.
For the compound `O=C1OCCC1N(C(=O)CCl)c1ccc(Cl)c(Cl)c1` (stereo not shown) [Compound 10], the pest or weed control at 100 ppm in experiment [1] worked out at 89%; in experiment [2], 39%.
Turning to `O=C1OCCC1N(C(=O)CCl)c1cc(Cl)cc(Cl)c1` (stereo not shown) [Compound 11], the pest or weed control at 100 ppm worked out at 45% in [1] and 54% in experiment [2].
For the compound `CCc1cccc(CC)c1N(C(=O)CCl)C1CC(C)OC1=O` (stereo not shown) [Compound 12], the pest or weed control at 100 ppm in experiment [2] stood at 87%.
For the compound `CCc1cccc(C)c1N(C(=O)CCl)C1CCOC1=O` (stereo not shown) [Compound 13], the figures for the pest or weed control at 100 ppm in [1] and in [2] were 0% and 87%, respectively.
In the case of `CCc1cccc(C)c1N(C(=O)CCl)C1CC(C)OC1=O` (stereo not shown) [Compound 14], in [2], the pest or weed control at 100 ppm is 29%.
Same read-out and setting: the figure for `Cc1cccc(C)c1N(C(=O)CBr)C1CCOC1=O` (stereo not shown) [Compound 15] is 54%; for `COc1cccc(OC)c1N(C(=O)CCl)C1CCOC1=O` (stereo not shown) [Compound 16] it is 67%; for `Cc1cccc(C)c1N(C(=O)CCCl)C1CCOC1=O` (stereo not shown) [Compound 17] it is 50%.
As for `Cc1cccc(C)c1N(C(=O)CCl)C1CCN(C(C)C)C1=O` (stereo not shown) [Compound 18], the pest or weed control at 100 ppm in experiment [1] is 15%; in experiment [2], 37%.
Turning to `Cc1cccc(C)c1N(C(=O)C(Cl)=C(Cl)Cl)C1CCOC1=O` (stereo not shown) [Compound 19], the pest or weed control at 100 ppm in experiment [2] turned out to be 15%.
On the same count and under the same terms, the figure for `C=CCN1CCC(N(C(=O)CCl)c2c(C)cccc2C)C1=O` (stereo not shown) [Compound 20] is 0%; for `Cc1cccc(C)c1N(C(=O)CCl)C1CCNC1=O` (stereo not shown) [Compound 21] it is 0%; for `Cc1cc(N2CCC(N(C(=O)CCl)c3c(C)cccc3C)C2=O)ccc1Cl` (stereo not shown) [Compound 22] it is 32%.
On the same count and under the same terms, under `Cc1cccc(C)c1N(C(=O)c1ccc(Cl)cc1)C1CCN(C)C1=O` (stereo not shown) [Compound 23] stands 0%; under `Cc1cc(C)c(N(C(=O)CCl)C2CCOC2=O)c(C)c1` (stereo not shown) [Compound 24], 0%.
Still for that read-out and setting: under `Cc1cccc(C(C)(C)C)c1N(C(=O)CCl)C1CCOC1=O` (stereo not shown) [Compound 25] stands 0%.
As for `Cc1ccc(N(C(=O)CCl)C2CCOC2=O)cc1C` (stereo not shown) [Compound 26], the pest or weed control at 100 ppm in experiment [1] is 12%; in experiment [2] it was 87%.
Taken in the same sequence, the figures for `COC(=O)C(C)N(C(=O)CCl)c1c(C)cccc1C` (stereo not shown) [Compound 27, reference compound] were 78% and 96%.
Take `O=S(=O)([O-])[O-].[Cu+2]` [Cupric sulfate]: the “Eradication ED50 (ppm of applied spray for 50% control)” value in experiment [3] (setting [10]) is 380 ppm; in [3] (setting [11]), 118 ppm; in experiment [3] (setting [12]) it was 204 ppm. Also, the “Eradication ED90 (ppm of applied spray for 90% control)” value in experiment [3] (setting [10]) turned out to be 610 ppm; in [3] (setting [11]), 289 ppm; in experiment [3] (setting [12]), 445 ppm.
With `O=C1c2ccccc2C(=O)N1SC(Cl)(Cl)Cl` [Folpet, N-(trichloromethylthio)phthalimide, reference compound], the results for the “Percent Control” value in [4] (6.4 ppm), in experiment [4] (16 ppm) and in [4] (40 ppm) were 80.1%, 98.8% and 97.7%, respectively.
Turning to `COC(=O)C(C)N(C(=O)CCl)c1c(C)cccc1C` (stereo not shown) [drawing 3, reference compound], the “% Control” value is given as 0% in experiment [5] (16 ppm), 0% in experiment [5] (40 ppm) and 10% in experiment [5] (100 ppm).
In the case of “Manganous ethylene bisdithiocarbamate [Maneb, reference compound]”, the “% Dead Seedlings” value in experiment [6] turned out to be 14.5%. The “% Control” value in experiment [6] (in vivo) stood at 40.6%; in [7] (16 ppm), 80%; in experiment [7] (40 ppm), 90%; in [7] (100 ppm), 98.3%.
“{[1,2-ethanediylbis(carbamodithioato)](2-)} manganese mixture with {[1,2-ethanediylbis(carbamodithioato)](2-)}-0 zinc [Mancozeb, reference compound]”: the “% Control” value in experiment [8] and in [9] was 0% in each case.
